These results are taken from PubChem BioAssay AID1421 (Emory University Molecular Libraries Screening Center, 2008).

Active and inactive are the calls of the source. The rule behind the calls is not given here.

In one assay the target is Prostaglandin E2 receptor EP2 subtype (Homo sapiens) (UniProt P43116). The assay is described as follows: compounds shifting PGE2 potency at EP2 – cell-based, human EP2, PGE2 EC50 shift, dose response (AID 1421). As to conditions: EP2-expressing cells, PGE2 EC50 shift by compound.
Sequence of Prostaglandin E2 receptor EP2 subtype (Homo sapiens) (P43116 whole entry, looked up): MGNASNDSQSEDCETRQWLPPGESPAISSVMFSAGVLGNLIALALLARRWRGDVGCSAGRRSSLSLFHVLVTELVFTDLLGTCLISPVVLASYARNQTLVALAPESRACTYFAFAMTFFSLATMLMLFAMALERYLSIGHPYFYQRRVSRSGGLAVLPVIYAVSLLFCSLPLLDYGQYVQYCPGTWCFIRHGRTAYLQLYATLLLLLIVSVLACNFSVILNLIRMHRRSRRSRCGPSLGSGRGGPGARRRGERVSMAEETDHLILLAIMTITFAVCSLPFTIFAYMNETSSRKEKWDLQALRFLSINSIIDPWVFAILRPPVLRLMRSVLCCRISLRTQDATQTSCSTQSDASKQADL
As for `COc1ccc2c(c1)c(=O)c(Br)c(C)n2Cc1ccccc1`, the outcome was active.

For the compound `Cc1ccccc1C(=O)Nc1ccccc1N1CCCCC1`, the result was active.

As to `COc1cc(-c2nc(-c3cccc(C(F)(F)F)c3)no2)cc(OC)c1OC`, the result was active.

Regarding `COc1ccc(-c2cc(C(F)(F)F)nc(N3CCCCC3)n2)cc1OC`, the outcome was active.

For `N#Cc1cn(-c2ccccc2)nc1-c1cc2ccccc2oc1=O`, the result was active.

As for `C(=N/n1c2ccccc2c2ccccc21)/c1ccco1`, the result was active.

The assay is the same for the next values; noted with them: EP2-expressing cells, PGE2 EC50 shift by compound; measured here: PGE2 EC50 at 6.7 uM compound.
For `CC(C)c1nc(SCc2c(F)cccc2Cl)c2c(=O)n(C)c(=O)n(C)c2n1`, the PGE2 EC50 with compound came out at 0.55 nM.

For the compound `CC(C)c1ccc2c(c1)CCC1C(C)(C(N)=O)CCCC21C` (configuration not stated), the PGE2 EC50 with compound worked out at 0.9 nM.

With `Cc1ccc2nc(-c3ccncc3)cc(-c3ccccc3)c2c1`, the PGE2 EC50 with compound stood at 0.31 nM.

For the compound `CCOC(=O)c1oc2ccccc2c1NC(=O)c1cccc(OC)c1OC`, the PGE2 EC50 with compound is 0.98 nM.

Turning to `O=C(Nc1ccccc1Oc1ccccc1)c1ccc(Br)o1`, the PGE2 EC50 with compound stood at 1.05 nM.

In the case of `COc1ccc2c(c1)c(=O)c(Br)c(C)n2Cc1ccccc1`, the PGE2 EC50 with compound was 0.83 nM.

As for `CCN(Cc1cc(Cl)cc(C)c1O)Cc1c(O)ccc2ccccc12`, the PGE2 EC50 with compound was determined as 0.84 nM.

Consider `N#Cc1sc2nc(C3CC3)cc(-c3ccccc3)c2c1N`, for which the PGE2 EC50 with compound was determined as 0.78 nM.

Turning to `Cc1noc(C)c1CSc1ncnc2sc3c(c12)CCC(C)C3` (configuration not stated), the PGE2 EC50 with compound was determined as 1.06 nM.

`Cc1ccccc1C(=O)Nc1ccccc1N1CCCCC1`: the PGE2 EC50 with compound worked out at 1.41 nM.

For `CN(C)Cc1ccccc1Sc1cccc2ccccc12`, the PGE2 EC50 with compound worked out at 1.07 nM.

Consider `COC(=O)c1ccc(-c2ccco2)n1Cc1cccc(C)c1`, for which the PGE2 EC50 with compound turned out to be 2.63 nM.

As to `COc1cccc(C(=O)Nc2cccc(OCC(=O)O)c2)c1`, the PGE2 EC50 with compound was determined as 0.93 nM.

Regarding `Cc1ccc(-c2nnc(N3CCC(C)CC3)c3ccccc23)cc1`, the PGE2 EC50 with compound came to 1.39 nM.

On to `Cc1ccc2nc(SCC(=O)NCc3ccco3)c(C)cc2c1`, for which the PGE2 EC50 with compound came to 0.76 nM.

In the case of `Cc1noc(C)c1CSc1ncnc2sc3c(c12)CCCCC3`, the PGE2 EC50 with compound was 1.22 nM.

Take `C/C=C(\C)c1nnc(NC(=O)OCC)s1`: the PGE2 EC50 with compound stood at 2.65 nM.

Turning to `CC1(c2cc([N+](=O)[O-])cc([N+](=O)[O-])c2)CC(C)(C)N(C(=O)c2ccccc2)c2ccccc21` (configuration not stated), the PGE2 EC50 with compound turned out to be 1.32 nM.

Consider `CCOC(=O)c1ccc2nc(C(F)(F)F)[nH]c(=O)c2c1`, for which the PGE2 EC50 with compound amounted to 1.19 nM.

With `CC(C)(Oc1ccc(Cl)cc1)C(=O)N(Cc1ccccc1)c1ccccn1`, the PGE2 EC50 with compound turned out to be 1.07 nM.

On to `C#CCN1C(C)=C(C(=O)OC)C(c2cccc([N+](=O)[O-])c2)C(C(=O)OCC)=C1C` (configuration not stated), for which the PGE2 EC50 with compound is 2.62 nM.

As for `C=CCSc1nc2ccsc2c(=O)n1-c1ccccc1`, the PGE2 EC50 with compound was 2.54 nM.

With `COc1cc(OC)cc(-c2nc(N)n[nH]2)c1`, the PGE2 EC50 with compound was 0.8 nM.

In the case of `CCOC1(OCC)C(c2ccc(N)cc2)C(C#N)(C#N)C1(OCC)OCC` (configuration not stated), the PGE2 EC50 with compound worked out at 0.31 nM.

Consider `Cc1ccc(C(=O)O)cc1NC(=S)NC(=O)c1ccc(-c2ccccc2)cc1`, for which the PGE2 EC50 with compound turned out to be 0.83 nM.

As to `CCOC(=O)C1=C(C)OC(N)=C(C#N)C1c1cc(C)sc1C` (configuration not stated), the PGE2 EC50 with compound was 1.3 nM.

`Cc1ccccc1/C=C/c1nc2ccccc2c(=O)n1CCc1ccccc1`: the PGE2 EC50 with compound stood at 1.38 nM.

Regarding `CCOC(=O)c1c(NC(=O)Cn2nnc3ccccc32)sc2c1CCC(C)C2` (configuration not stated), the PGE2 EC50 with compound is 1.14 nM.

As for `CCOC(=O)c1c(C2COc3ccccc3O2)csc1N` (configuration not stated), the PGE2 EC50 with compound is 1.39 nM.

With `CCOC(=O)c1c(-c2ccc(C)cc2)csc1NC(=O)CCN1CCOCC1`, the PGE2 EC50 with compound was found to be 1.21 nM.

As to `O=C(/C(=C/O)N=Nc1ccccc1)c1cccs1`, the PGE2 EC50 with compound worked out at 1.19 nM.

`CCCCOP(=O)(OCCCC)C(Nc1ccccc1)c1ccc2c(c1)OCO2` (configuration not stated): the PGE2 EC50 with compound was determined as 0.8 nM.

`COc1cc(OC)c2c(OC)c(-c3ccc4c(c3)OCO4)c(=O)oc2c1`: the PGE2 EC50 with compound was 1.43 nM.

On to `Cn1c(=O)c2c(SC3CCCC3)nc(C3CC3)nc2n(C)c1=O`, for which the PGE2 EC50 with compound came out at 0.61 nM.

Regarding `O=S(=O)(O)c1ccc2c(N=Nc3c(O)ccc4ccccc34)cccc2c1`, the PGE2 EC50 with compound is 1.28 nM.

In the case of `O=C(CO/N=C/c1ccccc1)N1c2ccccc2Oc2ccccc21`, the PGE2 EC50 with compound was found to be 1.45 nM.

On to `CCCCn1c(C)cc(C)c(S(=O)(=O)c2ccccc2C)c1=O`, for which the PGE2 EC50 with compound amounted to 1.08 nM.

Regarding `CC(C)CCn1c(-c2nonc2N)nc2ccccc21`, the PGE2 EC50 with compound was 1.49 nM.

Regarding `CCC(=O)O[C@H]1CCC2C3CCC4=CC(=O)CC[C@]4(C)C3CC[C@@]21C` (some centres not stated), the PGE2 EC50 with compound came out at 0.76 nM.

With `COC(=O)C1C(c2ccccc2)C(C(=O)OCc2ccco2)C1c1ccccc1` (configuration not stated), the PGE2 EC50 with compound was 2.61 nM.

Turning to `CCOc1ccc(OCC)c(NC(=O)CN2CCN(c3cc(C)ccc3C)CC2)c1`, the PGE2 EC50 with compound was determined as 0.8 nM.

For `CCOC(=O)C1=C(C)N(C)C(C)=C(C(=O)OCC)C1c1ccsc1`, the PGE2 EC50 with compound worked out at 0.79 nM.

As for `CCOC(=O)C(CC)Sc1ncnc2c1nnn2-c1ccc(F)cc1` (configuration not stated), the PGE2 EC50 with compound was found to be 0.33 nM.

Consider `O=S(=O)(c1ccccc1)N(Cc1nc(-c2ccccc2)no1)C1CCCCC1`, for which the PGE2 EC50 with compound was 1.26 nM.

In the case of `C[C@H](C(=O)c1ccccc1)[C@@H](c1ccccc1)N1CCOCC1`, the PGE2 EC50 with compound is 1.43 nM.

As to `Cc1c(C(=O)Nc2cccc3cccnc23)oc2ccccc12`, the PGE2 EC50 with compound came to 0.72 nM.

Consider `CCN(CC)C(=O)CN(c1cc2c(cc1OC)oc1ccccc12)S(=O)(=O)c1ccc(C)cc1`, for which the PGE2 EC50 with compound worked out at 1.2 nM.

For `CCOc1cccc(CNc2ccc(O)cc2)c1OCc1ccccc1Cl`, the PGE2 EC50 with compound came out at 0.62 nM.

On to `NCCc1c(-c2ccccc2)n(-c2ccccc2)c2ccccc12`, for which the PGE2 EC50 with compound worked out at 1.25 nM.

For the compound `CCCCOc1cc(C)nc(NCc2ccccc2)n1`, the PGE2 EC50 with compound was 1.47 nM.

As to `Cc1cc(C)c2cc(C)c(SCC(=O)NCc3ccco3)nc2c1`, the PGE2 EC50 with compound came to 1.03 nM.

In the case of `Cc1cccc(-c2nc(=S)c3c(n2Cc2ccco2)CCCC3)c1`, the PGE2 EC50 with compound was determined as 0.88 nM.

In the case of `Cc1ccc(Cn2ccc(=O)c(OCc3c(Cl)cccc3Cl)c2C)cc1`, the PGE2 EC50 with compound came out at 1.18 nM.

In the case of `COc1cc(-c2nc(-c3cccc(C(F)(F)F)c3)no2)cc(OC)c1OC`, the PGE2 EC50 with compound worked out at 0.89 nM.

`CCOC(=O)C1CCCN(c2c(C(=O)c3ccccc3)cnc3ccc(OC)cc23)C1` (configuration not stated): the PGE2 EC50 with compound came to 1.15 nM.

As for `N/C(CSc1nc(-c2ccccc2)c(-c2ccccc2)o1)=N\O`, the PGE2 EC50 with compound turned out to be 1.14 nM.

`COC(=O)C1=C(C)N(C)C(C)=C(C(=O)OC)C1c1cccc(Br)c1`: the PGE2 EC50 with compound is 0.97 nM.

Consider `O=C(CNC1CCCCC1)N1CCC2(CC1)OCCO2`, for which the PGE2 EC50 with compound came out at 1.35 nM.

`CN(C)c1nccc(N(Cc2ccccc2)Cc2ccccc2)c1C#N`: the PGE2 EC50 with compound is 1.16 nM.

Turning to `COC(=O)c1ccccc1NC(=O)C(C)Oc1ccccc1` (configuration not stated), the PGE2 EC50 with compound stood at 0.9 nM.

With `COc1ccc(-c2cc(C(F)(F)F)nc(N3CCCCC3)n2)cc1OC`, the PGE2 EC50 with compound amounted to 0.57 nM.

With `N#Cc1cn(-c2ccccc2)nc1-c1cc2ccccc2oc1=O`, the PGE2 EC50 with compound came to 0.99 nM.

Turning to `COC(=O)c1[nH]c2ccccc2c1NS(=O)(=O)c1ccc(F)c(C)c1`, the PGE2 EC50 with compound is 0.88 nM.

In the case of `C(=N/n1c2ccccc2c2ccccc21)/c1ccco1`, the PGE2 EC50 with compound was 1.08 nM.

For `O=C(Nc1ccccc1N1CCOCC1)c1ccc2ccccc2n1`, the PGE2 EC50 with compound amounted to 0.82 nM.

Consider `CCOC(=O)C1=C(C)N(C)C(C)=C(C(=O)OCC)C1c1ccccc1`, for which the PGE2 EC50 with compound worked out at 0.97 nM.
